Results: the supplement of paper PMC10307832

Assays:
Test in all cases: relative viability (nuclei count vs DMSO), 5 days (fraction); higher = more cells survive
Adavosertib + Bortezomib = compound: C=CCn1c(=O)c2cnc(Nc3ccc(N4CCN(C)CC4)cc3)nc2n1-c1cccc(C(C)(C)O)n1 [Adavosertib] + CC(C)C[C@H](NC(=O)[C@H](Cc1ccccc1)NC(=O)c1cnccn1)B(O)O [Bortezomib] (partner 0.002 µM)
Procedure, shortened: (§1)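 Lung cancer cell lines in 1536-well plates were dosed by pin tool the day after seeding, either with one drug alone or with a fixed anchor-drug dose plus five library-drug doses (not always all listed) in √10 steps. After 5 days, cells were fixed and their nuclei stained in one step (final 0.05% Triton X-100, 1% formaldehyde, 1 ug/ml Hoechst), then counted on 4× images. Relative viability is the nuclei count in treated wells divided by that in vehicle wells. Values are medians of duplicate plates.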

Nelarabine + Dasatinib = compound: COc1nc(N)nc2c1ncn2[C@@H]1O[C@H](CO)[C@@H](O)[C@@H]1O [Nelarabine] + Cc1nc(Nc2ncc(C(=O)Nc3c(C)cccc3Cl)s2)cc(N2CCN(CCO)CC2)n1 [Dasatinib] (partner 0.075 µM)
Procedure, shortened: as §1

Adavosertib + Linsitinib = compound: C=CCn1c(=O)c2cnc(Nc3ccc(N4CCN(C)CC4)cc3)nc2n1-c1cccc(C(C)(C)O)n1 [Adavosertib] + C[C@]1(O)C[C@@H](c2nc(-c3ccc4ccc(-c5ccccc5)nc4c3)c3c(N)nccn32)C1 [Linsitinib] (partner 1 µM)
Procedure, shortened: as §1

Nelarabine + Palbociclib = compound: COc1nc(N)nc2c1ncn2[C@@H]1O[C@H](CO)[C@@H](O)[C@@H]1O [Nelarabine] + CC(=O)c1c(C)c2cnc(Nc3ccc(N4CCNCC4)cn3)nc2n(C2CCCC2)c1=O [Palbociclib] (partner 0.5 µM)
Procedure, shortened: as §1

Cell Line | relative viability (Adavosertib + Bortezomib; first compound 0.01 µM) | relative viability (Adavosertib + Bortezomib; first compound 0.03162 µM) | relative viability (Adavosertib + Bortezomib; first compound 0.1 µM) | relative viability (Adavosertib + Bortezomib; first compound 0.3162 µM) | relative viability (Nelarabine + Dasatinib; first compound 0.01 µM) | relative viability (Nelarabine + Dasatinib; first compound 0.03162 µM) | relative viability (Nelarabine + Dasatinib; first compound 0.1 µM) | relative viability (Nelarabine + Dasatinib; first compound 0.3162 µM) | relative viability (Nelarabine + Dasatinib; first compound 1 µM) | relative viability (Adavosertib + Linsitinib; first compound 0.01 µM) | relative viability (Adavosertib + Linsitinib; first compound 0.03162 µM) | relative viability (Adavosertib + Linsitinib; first compound 0.1 µM) | relative viability (Adavosertib + Linsitinib; first compound 0.3162 µM) | relative viability (Nelarabine + Palbociclib; first compound 0.01 µM) | relative viability (Nelarabine + Palbociclib; first compound 0.03162 µM) | relative viability (Nelarabine + Palbociclib; first compound 0.1 µM) | relative viability (Nelarabine + Palbociclib; first compound 0.3162 µM) | relative viability (Nelarabine + Palbociclib; first compound 1 µM)
NCI-H2009 | 1.09 | 1.05 | 1.04 | 1.02 | 0.348 | 0.288 | 0.2 | 0.307 | 0.315 | 1.23 | 1.24 | 1.24 | 1.2 | 0.194 | 0.206 | 0.203 | 0.161 | 0.192
SK-LU-1 | 1.07 | 1.29 | 1.16 | 0.479 | 0.179 | 0.105 | 0.142 | 0.171 | 0.165 | 1.19 | 1.02 | 0.77 | 0.334 | 0.456 | 0.276 | 0.352 | 0.376 | 0.377
NCI-H3122 | 1.12 | 0.992 | 1.11 | 1.09 | 1.08 | 0.661 | – | 0.81 | 0.948 | 1.08 | 0.954 | 1.06 | 1.06 | 0.194 | 0.145 | – | 0.201 | 0.207
NCI-H1437 | 0.56 | 0.596 | 0.475 | 0.518 | 0.554 | 0.468 | 0.304 | 0.466 | 0.362 | 1.08 | 1.11 | 1.12 | 1.09 | 0.342 | 0.35 | 0.307 | 0.338 | 0.302
